Experimental data published in patent publication US12465629B2, “Prevention and treatment of organ injuries” (Farsight Medical Technology (Shanghai) Co., Ltd., priority 2020, dated 2025).

Columns and labels:
[1] = Comparative pharmacokinetic study, tissue distribution; design: species or system SD rats; details: rat, in vivo, iv, 3 mg/kg
Experimental: At the respective time points, blood samples and respective organ/tissues were collected and processed according to standard procedures The concentration of the respective drugs in the respective tissues were then measured using a validated LC-Ms/Ms method.

[2] = system: LPS induced lung injury in SD rats; assay: Acute lung injury model study II (LPS induced) in rats; format: in vivo; details: 1 and 3 mg/kg iv (G4, G5) at 1 h, 7 h, 24 h after LPS
Experimental: A study was conducted to assess the effect of combined administration of dexamethasone and Compound I in an acute lung injury model. LPS (lipopolysaccharide) was administered to induce lung injury in SD rats (SPF grade male, body weight 180-200 g).
Study group 1 (G1) served as sham control group (no induced acute lung injury) and Group 2 (G2) served as model group (acute lung injury, no treatment).
Dexamethasone, prepared as an aqueous solution, prepared by dissolving the appropriate amount in saline, was used as a positive control in group 3 (G3), and was also administered to group 6 (G6) and group 7 (G7), which also received Compound I. A lyophilized powder of Compound I, was dissolved in an aqueous reconstitution solution comprising Tween 80, acetic acid, sodium acetate, and further diluted with saline before application.
The animals were weighed. LPS (5 mg/kg) was then injected via the trachea of the rat after anesthesia and surgery to expose the trachea (all groups except for G1 where no LPS was injected). […]
Non-invasive lung function tests were determined at 24 hours and at 48 hours (end of the study). […]
Whole lung tissue samples were taken at end of study for histological examination. The histological examination comprised random selection of visual field areas which were blind scored for lung injury. […]

[3] = system: LPS induced lung injury in C57BL/6 mice; assay: Acute lung injury model study (LPS induced) in mice; format: in vivo
Experimental: Compound I was tested in an in vivo mouse model for acute lung injury.
LPS (lipopolysaccharide) was administered to induce lung injury in C57BL/6 mice. LPS elicits an acute inflammatory response in the lung, resulting in progressive damage, and necrosis of lung tissue including the bronchial wall, and alveoli.
LPS (0.3 mg/kg) was administered directly to the trachea of anaesthetized mice in study groups 2 to 6. […]
Non-invasive lung function tests including respiratory frequency, tidal volume, maximum inspiratory speeds and maximal expiratory speeds were determined on Day 2 and end of the study, 24 h after LPS was initially administered.
A significant impact was moreover observed with regards to the pathology of the lung tissue of the mice subjects. […] The histological examination comprised random selection of visual field areas which were blind scored for lung injury according to the following criteria: 1) alveolar congestion, 2) hemorrhage, 3) infiltration of inflammatory cells, and 4) thickness of alveolar wall according to a scale of 0 (minimal damage), 1, (mild damage), 2 (moderate damage), 3 (severe damage), and 4 (maximal damage). […]

In the case of `C/C=C/C[C@@H](C)[C@@H](O)[C@H]1C(=O)N[C@@H](CC)C(=O)N(C)[C@H](OCCN(C)C)C(=O)N(C)[C@@H](CC(C)C)C(=O)N[C@@H](C(C)C)C(=O)N(C)[C@@H](CC(C)C)C(=O)N[C@@H](C)C(=O)N[C@H](C)C(=O)N(C)[C@@H](CC(C)C)C(=O)N(C)[C@@H](CC(C)C)C(=O)N(C)[C@@H](C(C)C)C(=O)N1C` [Compound I, [(R)-2′(2-dimethylaminoethoxy)-Sar]^3 cyclosporin A], the Tmax ([1]; both sexes, Sprague-Dawley (SD)) was 30 min, the Tissue distribution [1] was “distribute to a greater degree to organ tissues, such as the kidney, and the lung” and the “Total bronchial and arteriole injury scoring” value ([2]; FIG. 5B) was “performed significantly better than the model (G2) and the positive group (G3)”. The “Total alveolar injury scoring” value ([2]; vs model G2, FIG. 5A) was “significant positive effect in terms of decreasing the severity of injuries to alveolar tissue”, the “Non-invasive lung function tests (tidal volume, breath rate, peak inspiratory and expiratory flow)” value ([3]; ip 0.5 h and 6 h after LPS, 1, 5, 10 mg/kg, in particular 10 mg/kg, 24 h after LPS, FIG. 1) was “statistically relevant improvements in some of the lung function tests” and the “Histological lung injury scoring (bronchial, arteriole and alveolar tissue)” value ([3]; ip 0.5 h and 6 h after LPS, all doses 1, 5, 10 mg/kg, vs model group G2, FIG. 2) was “significant effect in terms of decreasing the severity of injuries to bronchial, arteriole and alveolar tissue”.
